Read-outs that look alike come from different tables or passages of the source.
Test system: p21 induction in HCT 116 cells
Assay: p21 induction in cells (In-Cell Western, p21/GAPDH ratio)
Assay type: cell-based
Settings: 24 h compound incubation, read-out: p21_EC50
Description: The colon carcinoma cell line HCT 116 was obtained from ATCC and cultured in growth medium consisting of Mccoy's 5A Medium (Gibco 16600108) supplemented with 10% FBS (Transgene FS201-02) and 100 units/mL penicillin-streptomycin (Gibco 15140122) and maintained at 37° C. under 5% CO2. On the day of seeding, 2,000 cells in 30 μL of culture media were plated per well to Poly-D-Lysine 384 Well Black Clear Plates (Biocoat 356663) and incubated overnight at 37° C. under 5% CO2. The following day, compounds were serially diluted in DMSO for a total of 11 test concentrations. The typical starting concentration of compounds was 10 μM with 2-fold dilutions. Next, 150 nL of diluted compound was added in duplicate to the assay plate, using an Echo 655 (Labcyte). The plate was centrifuged at 500 RPM for 1 min and then incubated at 37° C. under 5% CO2 for 24 h. After 24 h, medium was removed, and cells were fixed by adding 40 μL of 4% paraformaldehyde solution to each well and incubated for 20 min at room temperature. The plate was then washed 4 times with 100 μL per well of wash buffer (PBS with 0.1% Tween-20) using a microplate washer. Next, 30 μL of ice-cold methanol was added to each well and the plate was incubated at −20° C. for 10 min. The plate was washed 4 times with 100 μL per well of wash buffer by a microplate washer, then 30 μL per well of blocking buffer ((Intercept PBS blocking buffer (LI-COR 927-70001) with 0.05% Tween-20)) was added and the plate was incubated at room temperature with shaking for 2 h. Next, to each test well, 20 μL of primary antibody solution (p21 Wafl/CIP (12D1) RabbitmAb (Cell Signaling Technologies 2947) diluted 1:1000 and GAPDH (D4C6R) Mouse mAb (Cell Signaling Technologies 97166) diluted 1:2000 in blocking buffer) was added and the plate was placed at 4° C., overnight. The following day, the plate was washed 5 times with 100 μL per well of wash buffer using a microplate washer for 5 min. 20 μL per well of secondary antibody (IRDye 680CW Goat anti-Mouse IgG (H+L) (LI-COR 926-68070) diluted 1:2000 in Blocking Buffer and IRDye 800CW Goat anti-Rabbit IgG (H+L) (LI-COR 926-32211) diluted 1:2000 in Blocking Buffer) was then added and the plate was stored for 2 h in the dark at room temperature with shaking. The plate was then washed 4 times with 100 μL per well of wash buffer again using a microplate washer. Finally, the p21 signal and the GAPDH signal were quantified using a LI-COR Odyssey CLx Imager machine reading at 800 nm and 700 nm, respectively. Each plate contained DMSO control (low control) and an internal reference WRN inhibitor (high control) respectively. For quantitation, the 800 nm/700 nm ratio was calculated for each well to give fold p21 induction and then percent activation for each compound well was calculated as follows (100×(ratio cpd well-ratio low control)/(ratio high control−ratio low control). EC50 values for each compound was generated after non-linear regression curve fitting using commercially available software.

For `CCc1c(N2CCN(C(=O)c3ncnc(C)c3O)[C@H]3CC[C@@H]32)c(=O)c2nn(C3=CCN(CC(F)F)CC3)nc2n1CC(=O)NC12CC(C3CC3)(C1)C2` [Compound I-185, N-{3-cyclopropylbicyclo[1.1.1]pentan-1-yl}-2-{2-[1-(2,2-difluoroethyl)-1,2,3,6-tetrahydropyridin-4-yl]-5-ethyl-6-[(1S,6S)-5-(5-hydroxy-6-methylpyrimidine-4-carbonyl)-2,5-diazabicyclo[4.2.0]octan-2-yl]-7-oxo-2H,4H,7H-[1,2,3]triazolo[4,5-b]pyridin-4-yl}acetamide], the EC50 (Homo sapiens) was ≤ 500 nM.

`CCc1c(N2CCN(C(=O)c3c(F)cnc(OC)c3O)[C@H]3CC[C@@H]32)c(=O)c2nn(C3=CCOCC3)nc2n1CC(=O)NC12CC(C3CC3)(C1)C2` [Compound I-183, N-{3-cyclopropylbicyclo[1.1.1]pentan-1-yl}-2-[2-(3,6-dihydro-2H-pyran-4-yl)-5-ethyl-6-[(1S,6S)-5-(5-fluoro-3-hydroxy-2-methoxypyridine-4-carbonyl)-2,5-diazabicyclo[4.2.0]octan-2-yl]-7-oxo-2H,4H,7H-[1,2,3]triazolo[4,5-b]pyridin-4-yl]acetamide] was tested, and the EC50 (Homo sapiens) was ≤ 500 nM.

`CCc1c(N2CCN(C(=O)c3ncnc(C)c3O)[C@H]3CC[C@@H]32)c(=O)c2nn(-c3ccn(C4CC4)n3)nc2n1CC(=O)NC12CC(C(C)C)(C1)C2` [Compound I-60, 2-[2-(1-cyclopropyl-1H-pyrazol-3-yl)-5-ethyl-6-[(1S,6S)-5-(5-hydroxy-6-methylpyrimidine-4-carbonyl)-2,5-diazabicyclo[4.2.0]octan-2-yl]-7-oxo-2H,4H,7H-[1,2,3]triazolo[4,5-b]pyridin-4-yl]-N-[3-(propan-2-yl)bicyclo[1.1.1]pentan-1-yl]acetamide] was tested, and the EC50 (Homo sapiens) was ≤ 500 nM.

In the case of `CCc1c(N2CCN(C(=O)c3ncnc(C)c3O)[C@H]3CC[C@@H]32)c(=O)c2nn([C@@H]3CC3(F)F)nc2n1CC(=O)Nc1ccc(C(F)(F)F)cc1Cl` (single isomer, unassigned) [Compound I-216], the EC50 is reported as ≤ 500 nM.

`CCc1c(N2CCN(C(=O)c3ncnc(C)c3O)[C@H]3CC[C@@H]32)c(=O)c2nn(C3=CCOCC3)nc2n1CC(=O)NC1CC2(CCC2)C1` [Compound I-197, 2-[2-(3,6-dihydro-2H-pyran-4-yl)-5-ethyl-6-[(1S,6S)-5-(5-hydroxy-6-methylpyrimidine-4-carbonyl)-2,5-diazabicyclo[4.2.0]octan-2-yl]-7-oxo-2H,4H,7H-[1,2,3]triazolo[4,5-b]pyridin-4-yl]-N-{spiro[3.3]heptan-2-yl}acetamide] was tested, and the EC50 (Homo sapiens) was ≤ 500 nM.

`CCc1c(N2CCN(C(=O)c3c(OC)ccc4ncoc34)[C@H]3CC[C@@H]32)c(=O)c2nn(C3=CCOCC3)nc2n1CC(=O)NC12CC(C3CC3)(C1)C2` [Compound I-192, N-{3-cyclopropylbicyclo[1.1.1]pentan-1-yl}-2-[2-(3,6-dihydro-2H-pyran-4-yl)-5-ethyl-6-[(1S,6S)-5-(6-methoxy-1,3-benzoxazole-7-carbonyl)-2,5-diazabicyclo[4.2.0]octan-2-yl]-7-oxo-2H,4H,7H-[1,2,3]triazolo[4,5-b]pyridin-4-yl]acetamide] was tested, and the EC50 (Homo sapiens) was ≤ 500 nM.

With `CCc1c(N2CCN(C(=O)c3ncnc(C)c3O)[C@H]3CC[C@@H]32)c(=O)c2nn(-c3ccnc(C(F)(F)F)c3)nc2n1CC(=O)NC12CC(C3CC3)(C1)C2` [Compound I-176, N-{3-cyclopropylbicyclo[1.1.1]pentan-1-yl}-2-{5-ethyl-6-[(1S,6S)-5-(5-hydroxy-6-methylpyrimidine-4-carbonyl)-2,5-diazabicyclo[4.2.0]octan-2-yl]-7-oxo-2-[2-(trifluoromethyl)pyridin-4-yl]-2H,4H,7H-[1,2,3]triazolo[4,5-b]pyridin-4-yl}acetamide] the EC50 (Homo sapiens) was ≤ 500 nM.

With `CCc1c(N2CCN(C(=O)c3c(COC)cccc3OC)[C@H]3CC[C@@H]32)c(=O)c2nn(C3=CCOCC3)nc2n1CC(=O)NC12CC(C3CC3)(C1)C2` [Compound I-212, N-{3-cyclopropylbicyclo[1.1.1]pentan-1-yl}-2-[2-(3,6-dihydro-2H-pyran-4-yl)-5-ethyl-6-[(1S,6S)-5-[2-methoxy-6-(methoxymethyl)benzoyl]-2,5-diazabicyclo[4.2.0]octan-2-yl]-7-oxo-2H,4H,7H-[1,2,3]triazolo[4,5-b]pyridin-4-yl]acetamide] the EC50 (Homo sapiens) was 500 to 2000 nM.

`CCc1c(N2CCN(C(=O)c3ncnc(C)c3O)[C@H]3CC[C@@H]32)c(=O)c2nn(-c3ccnc(OC)c3)nc2n1CC(=O)Nc1ccc(C(F)(F)F)cc1Cl` [Compound I-55, N-[2-chloro-4-(trifluoromethyl)phenyl]-2-{5-ethyl-6-[(1S,6S)-5-(5-hydroxy-6-methylpyrimidine-4-carbonyl)-2,5-diazabicyclo[4.2.0]octan-2-yl]-2-(2-methoxypyridin-4-yl)-7-oxo-2H,4H,7H-[1,2,3]triazolo[4,5-b]pyridin-4-yl}acetamide] was tested, and the EC50 (Homo sapiens) was ≤ 500 nM.

In the case of `CCc1c(N2CCN(C(=O)c3ncnc(C)c3O)[C@H]3CC[C@@H]32)c(=O)c2nn(C3=CCOCC3)nc2n1CC(=O)NC12CC(C(C)(C)C)(C1)C2` [Compound I-196, N-{3-tert-butylbicyclo[1.1.1]pentan-1-yl}-2-[2-(3,6-dihydro-2H-pyran-4-yl)-5-ethyl-6-[(1S,6S)-5-(5-hydroxy-6-methylpyrimidine-4-carbonyl)-2,5-diazabicyclo[4.2.0]octan-2-yl]-7-oxo-2H,4H,7H-[1,2,3]triazolo[4,5-b]pyridin-4-yl]acetamide], the EC50 (Homo sapiens) is reported as ≤ 500 nM.

`CCc1c(N2CCN(C(=O)c3ncnc(C)c3O)[C@H]3CC[C@@H]32)c(=O)c2nn(-c3ccnc(OC)c3)cc2n1CC(=O)NC12CC(C3CC3)(C1)C2` [Compound I-188, N-{3-cyclopropylbicyclo[1.1.1]pentan-1-yl}-2-{5-ethyl-6-[(1S,6S)-5-(5-hydroxy-6-methylpyrimidine-4-carbonyl)-2,5-diazabicyclo[4.2.0]octan-2-yl]-2-(2-methoxypyridin-4-yl)-7-oxo-2H,4H,7H-pyrazolo[4,3-b]pyridin-4-yl}acetamide] showed an EC50 (Homo sapiens) of 500 to 2000 nM.

For `CCc1c(N2CCN(C(=O)c3ncnc(C)c3O)[C@H]3CC[C@@H]32)c(=O)c2nn(-c3ccnc(OC)c3)nc2n1CC(=O)NC12CC(C3CCC3)(C1)C2` [Compound I-62, N-{3-cyclobutylbicyclo[1.1.1]pentan-1-yl}-2-{5-ethyl-6-[(1S,6S)-5-(5-hydroxy-6-methylpyrimidine-4-carbonyl)-2,5-diazabicyclo[4.2.0]octan-2-yl]-2-(2-methoxypyridin-4-yl)-7-oxo-2H,4H,7H-[1,2,3]triazolo[4,5-b]pyridin-4-yl}acetamide], the EC50 was ≤ 500 nM.

In the case of `CCc1c(N2CCN(C(=O)c3ncnc(C)c3O)[C@H]3CCC[C@@H]32)c(=O)c2nn(C3=CCOCC3)nc2n1CC(=O)NC12CC(C3CC3)(C1)C2` [Compound I-39, 2-{6-[(4aS,7aS)-4-(5-hydroxy-6-methylpyrimidine-4-carbonyl)-octahydro-1H-cyclopenta[b]pyrazin-1-yl]-2-(3,6-dihydro-2H-pyran-4-yl)-5-ethyl-7-oxo-2H,4H,7H-[1,2,3]triazolo[4,5-b]pyridin-4-yl}-N-{3-cyclopropylbicyclo[1.1.1]pentan-1-yl}acetamide], the EC50 (Homo sapiens) is reported as ≤ 500 nM.

— patent publication US20250129069A1, “TRIAZOLO WRN INHIBITORS” (Nimbus Wadjet, Inc., priority 2023, published 2025)
